Assay results published in US9409952B2, “Peptide-compound cyclization method” (Chugai Seiyaku Kabushiki Kaisha, priority 2011, dated 2016).
Starred links: 1 amine or outer side, 2 acyl side, 3 side chain; linkers in the order of their positions; H or OH if unused. Positions of bridges follow the written chain, without caps; N, C: chain ends. Non-standard residues stand in square brackets, D forms with d. Residues, ends and D or L forms follow the SMILES beside them. *: point of attachment. NMeF = CN[C@@H](Cc1ccccc1)C(=O)O; NMeGABA = CN(CCCC(=O)[*:2])[*:1]; NMeβAla = CN(CCC(=O)[*:2])[*:1]; NMeL = CN[C@@H](CC(C)C)C(=O)O; NMeV = CN[C@H](C(=O)O)C(C)C; NMeA = CN[C@@H](C)C(=O)O; Piperidide = C1CCN(*)CC1; dNMeA = CN[C@H](C)C(=O)O; Sar = CNCC(=O)O; tBu = CC(C)(C)*

Columns and labels:
[1] = PAMPA (parallel artificial membrane permeability assay); format: in vitro ADME; details: PAMPA; membrane permeation rate (Pe); 50 mM MOPSO buffer pH 6.5 with 5.0% glycocholic acid, 37° C., 18 hours; read-out: iPAMPA Pe
Outline: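 Artificial membrane was 10% (w/v) egg lecithin plus 0.5% (w/v) cholesterol in dodecane on a PVDF filter. A 10 mM DMSO stock was added at 0.5% (v/v) to donor buffer (50 mM MOPSO, pH 6.5, 5.0% glycocholic acid). After 18 h at 37 °C, LC/MS or LC/UV gave donor and acceptor levels for Pe.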

[2] = Metabolic stability in human hepatic microsome; format: in vitro ADME; details: microsomes, pH 7.4; human hepatic microsome, NADPH(+); read-out: CL NADPH(+)

SMILES | Papp at 18 hours, 50 µM [1] [×10⁻⁶ cm/s] | microsomal CLint at 1 uM [2] [µL/min/mg]
CC[C@H](C)[C@@H]1NC(=O)[C@H](CC(C)C)N(C)C(=O)CN(C)C(=O)[C@H]([C@@H](C)O)NC(=O)[C@H](C)N(C)C(=O)[C@H](Cc2ccccc2)NC(=O)[C@H](CC(C)C)N(C)C(=O)[C@H](C)N(C)C(=O)C[C@@H](C(=O)N(C)[C@@H](Cc2ccccc2)C(=O)N(C)[C@@H](Cc2ccccc2)C(=O)N[C@@H](C)C(=O)N2CCCCC2)NC(=O)[C@H](C(C)C)N(C)C1=O [DP-459] ([NMeA][NMeL]F[NMeA]T[Sar][NMeL]I[NMeV]D[NMeF][NMeF]A-Piperidide; lactam N-10) | 19 | 143
CC(C)[C@@H]1NC(=O)[C@H](C)N(C)C(=O)[C@H](Cc2ccccc2)N(C)C(=O)[C@H](C)N(C)C(=O)[C@H]([C@@H](C)O)NC(=O)[C@H](C)N(C)C(=O)[C@H](C)N(C)C(=O)C[C@@H](C(=O)N(C)[C@@H](Cc2ccccc2)C(=O)N(C)[C@@H](Cc2ccccc2)C(=O)N[C@@H](C)C(=O)N2CCCCC2)NC(=O)[C@H](C)N(C)C(=O)[C@H](C)N(C)C1=O [DP-460] ([NMeA][NMeA]T[NMeA][NMeF][NMeA]V[NMeA][NMeA]D[NMeF][NMeF]A-Piperidide; lactam N-10) | 5.1 | 17
CC(C)C[C@@H]1NC(=O)[C@H](CC(C)C)N(C)C(=O)CCN(C)C(=O)C[C@@H](C(=O)N(C)[C@@H](Cc2ccccc2)C(=O)N[C@@H](C)C(=O)N2CCCCC2)NC(=O)[C@H]([C@@H](C)O)NC(=O)[C@H](CC(C)C)N(C)C(=O)[C@H](Cc2ccccc2)NC(=O)[C@H](Cc2ccccc2)N(C)C(=O)[C@H](CC(C)C)N(C)C1=O [DP-461] ([NMeβAla][NMeL]L[NMeL][NMeF]F[NMeL]TD[NMeF]A-Piperidide; lactam N-9) | 33 | 78
CC(C)C[C@H]1C(=O)N(C)[C@@H](C)C(=O)N[C@@H]([C@@H](C)O)C(=O)N(C)[C@@H](C)C(=O)N[C@H](C(=O)N(C)[C@@H](Cc2ccccc2)C(=O)N[C@@H](C)C(=O)N2CCCCC2)CC(=O)N(C)[C@H](C)C(=O)N(C)[C@@H](Cc2ccccc2)C(=O)N(C)[C@@H](C)C(=O)N[C@@H](C(C)C)C(=O)N1C [DP-462] ([dNMeA][NMeF][NMeA]V[NMeL][NMeA]T[NMeA]D[NMeF]A-Piperidide; lactam N-9) | 9.5 | 17
CC(C)C[C@H]1C(=O)N(C)[C@@H](C)C(=O)N[C@H](C(=O)N(C)[C@@H](Cc2ccccc2)C(=O)N(C)[C@@H](Cc2ccccc2)C(=O)N[C@@H](C)C(=O)N2CCCCC2)CC(=O)N(C)[C@H](C)C(=O)N(C)[C@@H](Cc2ccccc2)C(=O)N(C)CC(=O)N[C@@H]([C@@H](C)O)C(=O)N[C@@H](C)C(=O)N(C)[C@@H](C)C(=O)N1C [DP-463] ([dNMeA][NMeF][Sar]TA[NMeA][NMeL][NMeA]D[NMeF][NMeF]A-Piperidide; lactam N-9) | 3.1 | 10
CC(C)C[C@H]1C(=O)N[C@@H]([C@@H](C)O)C(=O)N(C)[C@@H](C)C(=O)N[C@@H](C(C)C)C(=O)N(C)[C@@H](C)C(=O)N(C)[C@@H](C)C(=O)N[C@H](C(=O)N(C)[C@@H](Cc2ccccc2)C(=O)N(C)[C@@H](Cc2ccccc2)C(=O)N[C@@H](C)C(=O)N2CCCCC2)CC(=O)N(C)[C@@H](C)C(=O)N(C)[C@@H](Cc2ccccc2)C(=O)N1C [DP-464] ([NMeA][NMeF][NMeL]T[NMeA]V[NMeA][NMeA]D[NMeF][NMeF]A-Piperidide; lactam N-9) | 25 | 30
CC(C)C[C@H]1C(=O)N(C)[C@@H](C)C(=O)N[C@@H]([C@@H](C)O)C(=O)N(C)[C@@H](C)C(=O)N(C)[C@@H](C(C)C)C(=O)N[C@@H](COC(C)(C)C)C(=O)N[C@H](C(=O)N2CCCCC2)CC(=O)N(C)CCC(=O)N(C)[C@@H](Cc2ccccc2)C(=O)N[C@@H](C)C(=O)N(C)[C@@H](C)C(=O)N[C@@H](Cc2ccccc2)C(=O)N1C [DP-465] ([NMeβAla][NMeF]A[NMeA]F[NMeL][NMeA]T[NMeA][NMeV]S(tBu)D-Piperidide; lactam N-12) | 5.1 | 23
CC(C)C[C@@H]1NC(=O)[C@H](CC(C)C)N(C)C(=O)[C@H](Cc2ccccc2)N(C)C(=O)[C@@H](C)N(C)C(=O)C[C@@H](C(=O)N2CCCCC2)NC(=O)[C@H](Cc2ccccc2)N(C)C(=O)[C@H](C)N(C)C(=O)[C@H](C)NC(=O)CN(C)C(=O)[C@H](C)N(C)C(=O)[C@H]([C@@H](C)O)NC(=O)[C@H](C(C)C)N(C)C1=O [DP-466] ([dNMeA][NMeF][NMeL]L[NMeV]T[NMeA][Sar]A[NMeA][NMeF]D-Piperidide; lactam N-12) | 15 | 17
CC(C)C[C@@H]1NC(=O)[C@H](C(C)C)N(C)C(=O)[C@H](C)N(C)C(=O)[C@H](Cc2ccccc2)N(C)C(=O)[C@H](Cc2ccccc2)NC(=O)[C@@H](C)N(C)C(=O)C[C@@H](C(=O)N2CCCCC2)NC(=O)[C@H]([C@@H](C)O)NC(=O)[C@H](C)N(C)C(=O)[C@H](C)N(C)C(=O)[C@H](C)NC(=O)CN(C)C1=O [DP-467] ([dNMeA]F[NMeF][NMeA][NMeV]L[Sar]A[NMeA][NMeA]TD-Piperidide; lactam N-12) | 1.5 | 12
CC[C@H](C)[C@@H]1NC(=O)CCCN(C)C(=O)C[C@@H](C(=O)N2CCCCC2)NC(=O)[C@H](Cc2ccccc2)N(C)C(=O)[C@H](CC(C)C)N(C)C(=O)CN(C)C(=O)[C@H]([C@@H](C)O)NC(=O)[C@H](C)N(C)C(=O)[C@H](C(C)C)N(C)C(=O)[C@H](C)NC(=O)[C@H](CC(C)C)N(C)C(=O)[C@H](Cc2ccccc2)N(C)C1=O [DP-468] ([NMeGABA]I[NMeF][NMeL]A[NMeV][NMeA]T[Sar][NMeL][NMeF]D-Piperidide; lactam N-12) | 27 | 53
CC(C)C[C@@H]1NC(=O)[C@H](Cc2ccccc2)N(C)C(=O)[C@H](C)N(C)C(=O)C[C@@H](C(=O)N2CCCCC2)NC(=O)[C@H](Cc2ccccc2)N(C)C(=O)[C@H](C)N(C)C(=O)[C@H]([C@@H](C)O)NC(=O)CN(C)C(=O)[C@H](C)N(C)C(=O)[C@H](C)NC(=O)[C@H](C(C)C)N(C)C(=O)[C@H](CC(C)C)N(C)C1=O [DP-469] ([NMeA][NMeF]L[NMeL][NMeV]A[NMeA][Sar]T[NMeA][NMeF]D-Piperidide; lactam N-12) | 14 | 23
CC(C)C[C@@H]1NC(=O)[C@H](Cc2ccccc2)N(C)C(=O)[C@H](C)NC(=O)[C@H](C)N(C)C(=O)C[C@@H](C(=O)N2CCCCC2)NC(=O)[C@H]([C@@H](C)O)NC(=O)[C@H](C)N(C)C(=O)[C@H](C)N(C)C(=O)[C@H](Cc2ccccc2)NC(=O)CN(C)C(=O)[C@H](C(C)C)N(C)C(=O)[C@H](C)N(C)C1=O [DP-470] ([NMeA]A[NMeF]L[NMeA][NMeV][Sar]F[NMeA][NMeA]TD-Piperidide; lactam N-12) | 1.2 | 11
CC(C)C[C@H]1C(=O)N[C@@H]([C@@H](C)O)C(=O)N(C)CC(=O)N(C)[C@@H](Cc2ccccc2)C(=O)N(C)[C@@H](CC(C)C)C(=O)N(C)[C@@H](Cc2ccccc2)C(=O)N(C)[C@@H](CC(C)C)C(=O)N[C@@H](C)C(=O)N[C@H](C(=O)N2CCCCC2)CC(=O)N(C)CCC(=O)N(C)[C@@H](C)C(=O)N1C [DP-471] ([NMeβAla][NMeA][NMeL]T[Sar][NMeF][NMeL][NMeF][NMeL]AD-Piperidide; lactam N-11) | 21 | 30
